This note sets out measurements from patent USRE34630E, “Substituted isoquinolines and methods of using same” (Euroceltique, S.A., priority 1992, dated 1994).

Read-outs that look alike come from different tables or passages of the source.

The subject of assay [1] is human neutrophils (PAF-induced bead adhesion). The assay is described as follows: PAF-induced adhesion of human neutrophils to latex beads. Format: cell-based. To be noted: Neutrophil, albumin-coated latex beads. The protocol: (§1) The cellular responses studied include (1) PAF-induced release of preloaded, radiolabeled serotonin from rabbit platelets, (2) PAF-induced degranulation (release of myeloperoxidase) from purified human nuetrophils and (3) PAF-induced adhesion of human neutrophils to latex beads. Each putative antagonist was tested at 30 μM for its effect on each response. Selected compounds were tested in a concentration-response fashion.
Latex bead suspension (0.6 ml; 10% aqueous suspension; particle diameter=1u) is pipeted into a 1.5 ml eppendorf centrifuge tube. The beads are pelleted by centrifugation, the supernatant is discarded and the beads are washed 2 times with 1 ml 0.9% saline. To the pelleted beads is added 0.5 ml 20 mg/ml human serum albunim (HSA) in Krebs-Ringer buffer.
Allow bed-albumin mixture to sit at room temperature for 10 minutes, centrifuge for 1 minute and remove the supernatant, and wash albumin-coated beads 3 times with saline. Resuspend the beads in 1 ml of Krebs-Ringer.
Human neutrophils are prepared as described for the neutrophil degranulation assay and 10^7 cells are added to 0.3 ml of Krebs-Ringerin the presence and absence of PAF and putative antagonist and are incubated at 37° for an appropriate period of time.
The albumin-coated beads are then added in 0.05 ml to give a final bead concentration of 1% v/v, resulting in a bead to neutrophil ratio of 100:1. The tubes containing cells and beads are then placed in an agitating water bath at 37° C. and 120 oscillation per minute for 10 minutes. The reaction is stopped by adding an equal volume of 2.5% glutaraldehyde in saline. The reaction tubes are allowed to stand at room temperature for 30 minutes. The cells are then washed 3 times (with centrifugation at 1000 rpm for 5 minutes) with saline to remove the unadhered latex beads and resuspended in 0.3 ml saline.
Wet mounts are prepared and adherence is examined by light microscopy at 400x. […] Activity of the antagonists is expressed as the percent inhibition of PAF-induced adherence.

Assay [2] concerns rabbit platelets (PAF-induced serotonin release). The experiment in a line: PAF-induced release of tritiated serotonin from rabbit platelets. Format: cell-based, rabbit (New Zealand White). To be noted: Oryctolagus cuniculus, Platelet; for inhibition at 30 µM: read-out: Platelet Serotonin Release % Inhibition at 30 uM, 30 uM; for IC50: read-out: Platelet Serotonin Release I50. Here is the method:
as §1
Blood is collected from the central ear artery of New Zealand White rabbits into a 1:7 volume of acid citrate dextrose. The blood is centrifuged at 1100 rpm for 20 minutes. The isolated platelet rich plasma (PRP) is then incubated at 37° C. for 30 minutes with 1 μCi^3 H-serotonin binoxalate per ml PRP. Labeled platelets are pelleted by centrifugation at 2800 rpm for 20 minutes. The platelets are then washed in Tyrodes gel buffer without calcium in the presence of 0.1 mM EGTA and again pelleted at 2800 rpm for 20 minutes. This wash process is repeated. The washed platelet pellet is resuspended in Tyrodes gel buffer without calcium and adjusted to a concentration of 1.25×10^9 platelets/ml, as determined from a standard curve of absorbance at 530 num vs platelet concentration.
Polystyrene reaction tubes containing various dilutions of PAF (for standard curve determination) or a single concentration of PAF with and without the subject antagonist in a 0.45 ml volume of Tyrodes gel buffer with calcium each receive a 0.05 ml aliquot of the paltelet preparation. After a 90 second incubation period at room temperature, the reaction is stopped by the addition of 0.02 ml of 9.25 % formaldehyde. The platelets are then pelleted by centrifugation at 2800 rpm for 15 minutes at 4° C.
Aliquots (0.1 ml) of the supernatants are added to 3 ml liquid scintillation fluid in polypropylene vials. The samples are then counted for radioactivity in a liquid scintillation counter. The platelets in one set of reaction tubes containing only buffer and labeled platelets are lysed using 0.01 ml 10% Triton TX, and the total reactivity is determined by liquid scintillation counting. The determined dpm represent the total radioactivity in the labelled platelets. The results for each determination are reported as the percentage release of the total radioactivity in the sample. The extent of PAF antagonist activity is expressed as the percent inhibition of ^3 H-serotonin release compared to that amount released by PAF alone.

Assay [3] concerns human neutrophils (PAF-induced degranulation). The assay is described as follows: PAF-induced degranulation (myeloperoxidase release) of human neutrophils. Format: cell-based. The settings on record: Neutrophil. The protocol:
as §1
Neutrophils are isolated from human venous blood via a two-step sedimentation procedure, and contaminating erythrocytes are selectively lysed. The neutrophils were preincubated in 0.25% Hanks buffer containing bovine serum albumin (BSA) with 5 ug Cytochalasin B/ ml cells for 5 minutes at 37° C. Neutrophils (4×10^6) are added to stimuli (PAF or buffer control) in the presence and absence of antagonist in Krebs-Ringer buffer to a final volume of 1.0 ml, and incubated at 37° C. for appropriate periods of time. At the end of the reaction period the neutrophils are pelleted by centrifugation at 3000 rpm for 5 minutes at 4° C.
Aliquots (0.2 ml) of the supernatants are added to polysyrene tubes to which are added the following: 0.6 ml)>25% Hanks BSA, 0.5 ml MPO buffer (0.2 M NaPO4, pH 6.2) and to start the color reaction 0.2 ml of a 1:1 v/v 0.05% H2 O2 :1.25 mg/ml dimethoxybenzidine (DMB). The reaction is allowed to run at room temperature for 15 minutes and is stopped by the addition of 0.05 ml 2% sodium azide. The developed color is quantitated in a spectrophotometer at 460 nm. The amount of myeloperoxidase (MPO) released by PAF stimulation can thus be determined. In order to determine the total amount of MPO in the cells an unstimulated control tube of neutrophils is lysed using 0.01 ml 10% Triton TX and the total MPO is determined via the color reaction and spectrophotometer reading. The activity of a given concentration of PAF is expressed as the percentage of the total MPO released. The activity of antagonists at a given concentration is expressed as a percentage of inhibition of PAF-induced MPO released at a single concentration of PAF.

Another assay concerns PAF-induced edema. The experiment in a line: PAF-induced edema formation in rabbit skin. Format: in vivo. The settings on record: for % Inhibition of PAF-induced edema: local intradermal, with PAF+PGE2, 30 minutes. The protocol:
PAF (10^-9 moles/site) was mixed with […] (a vasodilator, 3×10^-10 moles/site) and injected intradermally in 0.1 ml volumes with six replicates per sample. After 30 minutes a cardiac blood sample was taken and the plasma perpared. The animal was then killed, the dorsal skin removed and injection sites were punched out. Skin samples were counted in a counter together with plasma samples and the amount of plasma leakage in skin sites expressed in terms of 1 μl plasma by comparing the skin radioactivity with that in 1 μl plasma.

Take `COc1ccc(C2=NCCc3cc(C)ccc32)cc1` [Compound H2, 1-(4-Methoxyphenyl)-6-methyl-3,4-dihydroisoquinoline]: the inhibition at 30 µM in assay [1] worked out at 3%; in assay [2] (PAF-induced, rabbit platelets), 100%; in assay [3] it was 25%. Moreover, the IC50 in assay [2] (PAF-induced, rabbit platelets) came out at 18 µM.
`COc1ccc(Cc2nccc3cc(OCc4ccccn4)ccc23)cc1OC` [Compound J3a, 1-(3,4-Dimethoxybenzyl)-6-(2-pyridylmethyloxy) isoquinoline]: the inhibition at 30 µM was 12% in assay [1]; 88% in assay [2] (PAF-induced, rabbit platelets); 70% in assay [3]. In addition, in assay [2] (PAF-induced, rabbit platelets), the IC50 is 0.8 µM. Besides, the “% Inhibition of PAF-induced edema” value with PAF-induced edema (10^-7 moles/site) is given as 62%; in the assay with PAF-induced edema (10^-8 moles/site), 30%; in the assay with PAF-induced edema (10^-9 moles/site), -7%; in the assay on PAF-induced edema (10^-10 moles/site), 2%.
On to `COc1cc(C2=NCCc3cc(C)ccc32)cc(OC)c1OC` [Compound F2, 1-(3,4,5-Trimethoxyphenyl)-6-methyl-3,4-dihydroisoquinoline], for which the inhibition at 30 µM in assay [1] came out at 26%; in assay [2] (PAF-induced, rabbit platelets) it was 48%; in assay [3], 27%.
Regarding `COc1ccc(C2=NCCc3ccccc32)cc1OC` [Compound A2, 1-(3,4-Dimethoxyphenyl)-3,4-dihydroisoquinoline], the inhibition at 30 µM in assay [1] was 2%; in assay [2] (PAF-induced, rabbit platelets), 48%; in assay [3], 7%.
For `COc1cc(-c2nccc3cc(C)ccc23)cc(OC)c1OC` [Compound F3, 1-(3,4,5-Trimethoxyphenyl)-6-methylisoquinoline] the same measures were 87%, 89% and 60%.
Consider `COc1ccc(-c2nccc3cc(C)ccc23)cc1OC` [Compound C3, 1-(3,4-dimethoxyphenyl)-6-methylisoquinoline], for which the inhibition at 30 µM was determined as 30% in assay [1]; 100% in assay [2] (PAF-induced, rabbit platelets); 78% in assay [3]. Further, the IC50 in assay [3] (Homo sapiens, read-out: PAF-Induced Neutrophil Degranulation I50) was over 30 µM.
On to `COc1ccc(-c2nccc3ccccc23)cc1OC` [Compound A3, 1-(3,4-dimethoxyphenyl) isoquinoline], for which the inhibition at 30 µM in assay [1] amounted to 2%; in assay [2] (PAF-induced, rabbit platelets) it was 80%; in assay [3], 38%.
With `COc1ccc(Cc2nccc3cc(C)ccc23)cc1OC` [Compound D3, 1-(3,4-Dimethoxybenzyl)-6-methylisoquinoline], the inhibition at 30 µM in assay [1] came out at 100%; in assay [2] (PAF-induced, rabbit platelets) it was 100%; in assay [3] it was 57%. The IC50 in assay [2] (PAF-induced, rabbit platelets) was 25 µM.
With `CCCCC[C@H](O)/C=C/[C@H]1[C@H](O)CC(=O)[C@@H]1C/C=C\CCCC(=O)O` [PGE2, reference compound], in the assay on PAF-induced edema (intradermal, alone, compared with saline), the “Edema formation in rabbit skin (response to agent alone)” value is listed as “not much greater than seen with saline”.
As for `COc1cccc(C2=NCCc3cc(C)ccc32)c1` [Compound G2, 1-(3-Methoxyphenyl)-6-methyl-3,4-dihydroisoquinoline], the inhibition at 30 µM in assay [1] amounted to 42%; in assay [2] (PAF-induced, rabbit platelets), 100%; in assay [3], 14%. Moreover, the IC50 in assay [2] (PAF-induced, rabbit platelets) is 20 µM.
As for `COc1ccc(C2=NCCc3cc(O)ccc32)cc1OC` [Compound 12a, 1-(3,4-Dimethoxyphenyl)-6-hydroxy-3,4-dihydroisoquinoline], the inhibition at 30 µM in assay [1] was 90%; in assay [2] (PAF-induced, rabbit platelets), 12%; in assay [3], 40%.
`COc1ccc(C2=NCCc3cc(OCc4ccccc4)ccc32)cc1OC` [Compound I2, 1-(3,4-Dimethoxyphenyl)-6-benzyloxy-3,4-dihydroisoquinoline]: the inhibition at 30 µM in assay [1] came out at 10%; in assay [2] (PAF-induced, rabbit platelets) it was 100%; in assay [3], 72%. Also, the IC50 in assay [2] (PAF-induced, rabbit platelets) was 12.5 µM.
On to `COc1ccc(C2=NCCc3cc(OCCN(C)C)ccc32)cc1OC` [Compound 12b], for which the inhibition at 30 µM in assay [1] is 2%; in assay [2] (PAF-induced, rabbit platelets) it was 0%; in assay [3], 10%.
With `COc1ccc(CCC2=NCCc3cc(C)ccc32)cc1OC` [Compound E2], the inhibition at 30 µM in assay [1] worked out at 2%; in assay [2] (PAF-induced, rabbit platelets) it was 92%; in assay [3] it was 70%.
As for `COc1ccc(C2=NCCc3cc(C)ccc32)cc1OC` [Compound C2, 1-(3,4-Dimethoxyphenyl)-6-methyl-3,4-dihydroisoquinoline], the inhibition at 30 µM was 10% in assay [1], 0% in assay [2] (lot 2), 38% in assay [2] (lots 1 & 3) and 16% in assay [3].
`COc1ccc(CCc2nccc3cc(C)ccc23)cc1OC` [Compound E3, 1-[2-(3,4-Dimethoxyphenyl)ethyl]-6-methylisoquinoline]: the inhibition at 30 µM is 9% in assay [1]; 90% in assay [2] (PAF-induced, rabbit platelets); 77% in assay [3].
